From US8735388B2, “Heterocyclic compounds with affinity to muscarinic receptors” (Abbvie B. V. A., priority 2007, dated 2014) come the findings set out here.

In assay [1] the target is T1, Muscarine M4 (GPCR-A-MA-ACH M4) (Homo sapiens, UniProt P08173).
T1 construct: expressed in transfected cells; host or cells: CHO cells
T1 sequence (P08173 1-479): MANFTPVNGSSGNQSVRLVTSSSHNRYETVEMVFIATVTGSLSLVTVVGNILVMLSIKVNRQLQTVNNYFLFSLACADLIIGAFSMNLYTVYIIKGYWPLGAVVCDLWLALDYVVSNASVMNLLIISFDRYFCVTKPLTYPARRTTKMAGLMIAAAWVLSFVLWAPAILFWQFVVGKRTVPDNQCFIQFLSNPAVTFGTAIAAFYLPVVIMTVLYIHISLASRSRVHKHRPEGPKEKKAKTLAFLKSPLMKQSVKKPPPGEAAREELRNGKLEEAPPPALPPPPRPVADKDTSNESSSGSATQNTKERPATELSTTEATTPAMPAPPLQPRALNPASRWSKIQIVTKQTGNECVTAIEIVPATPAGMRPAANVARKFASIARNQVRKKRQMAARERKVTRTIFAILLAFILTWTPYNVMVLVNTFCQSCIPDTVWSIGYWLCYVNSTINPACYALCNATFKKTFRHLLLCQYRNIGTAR
Briefly: Muscarine M4 cell-based functional assay (CHO cells, Ca2+ - Aequorin luminescence). Conditions: human M4, CHO cells; agonist mode, reference agonist oxotremorine; read-out: Cell funct. Musc. M4 Agonism pEC50 (converted). The procedure:
Compounds were dissolved in DMSO (10 mM) and diluted in assay buffer to test concentration. Prime testing was at 1 μM; for actives in antagonist mode (PI, percent inhibition with respect to reference agonist and blank>30%) as well as actives in agonist mode (PS, percent stimulation with respect to reference agonist and blank>30%) testing was continued at lower concentrations in 10-fold dilutions: 0.1 μM, 0.01 μM, etc.
Cells were incubated with compound and the response indicated was measured.
The results are expressed as a percent of reference agonist values and blanks in the presence of the test compound, percent stimulation for agonist mode; for the antagonist mode (test compound in the presence of reference agonist) as percent inhibition. The EC50 values (concentration causing a half-maximal stimulation of control values), IC50 values (concentration causing a half-maximal inhibition of control values) were determined by non-linear regression analysis of the concentration-response curves using Hill equation curve fitting.

In assay [2] the target is T2, Muscarine M1 (GPCR-A-MA-ACH M1) (Homo sapiens, UniProt P11229).
T2 construct: expressed in transfected cells; host or cells: CHO cells
T2 sequence (P11229 1-460): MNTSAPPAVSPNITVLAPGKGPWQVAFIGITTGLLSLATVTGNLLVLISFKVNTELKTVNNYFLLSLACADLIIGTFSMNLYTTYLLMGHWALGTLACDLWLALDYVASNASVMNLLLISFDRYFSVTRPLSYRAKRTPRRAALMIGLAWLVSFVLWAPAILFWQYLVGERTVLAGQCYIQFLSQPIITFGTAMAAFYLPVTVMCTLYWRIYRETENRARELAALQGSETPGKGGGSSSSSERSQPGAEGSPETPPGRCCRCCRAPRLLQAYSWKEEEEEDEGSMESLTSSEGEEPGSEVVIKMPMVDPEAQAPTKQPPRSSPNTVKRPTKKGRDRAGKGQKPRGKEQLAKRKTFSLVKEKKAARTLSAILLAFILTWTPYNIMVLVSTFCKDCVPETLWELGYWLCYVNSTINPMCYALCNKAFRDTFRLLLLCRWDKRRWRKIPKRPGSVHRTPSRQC
Briefly: Muscarine M1 cell-based functional assay (CHO cells, Ca2+ - FLIPR Fluorimetry). Conditions: human M1, CHO cells; agonist mode, reference agonist acetylcholine; read-out: Cell funct. Musc. M1 Agonism pEC50 (converted).

In assay [3] the target is T2, Muscarine M1 (GPCR-A-MA-ACH M1). As to the kind of experiment: Muscarine M1 receptor binding, 3H-Pirenzepine. Conditions: human M1, CHO cells, ligand 2 nM, 60 min/22° C., read-out: RB Musc. M1 3H-Pirenzepine pKi (converted). The procedure: (§1) Compounds were dissolved in DMSO (10 mM) and diluted in assay buffer to test concentration. Prime testing was at 10 μM; for actives (PI, percent inhibition with respect to total and non-specific binding >40%) testing was continued at lower concentrations in 10-fold dilutions: 1 μM, 0.1 μM, etc.
(§2) Following incubation of compound with the receptor preparation (from ‘Tissue’) and the Ligand at the time and temperature indicated, the receptor preparations were rapidly filtered under vacuum through glass fibre filters; the filters were washed extensively with an ice-cold buffer using a harvester. Bound radioactivity was measured by scintillation counting using a liquid scintillation cocktail.
(§3) Results were expressed as percentage of total Ligand binding and that of Non Specific Binding, per concentration of Compound tested (duplicates); from the concentration—displacement curves IC50 values were determined by non-linear regression analysis using Hill equation curve fitting. The inhibition constants (Ki) were calculated from the Cheng-Prushoff equation Ki=IC50/(1+L/Kd), where L is the concentration of radioligand in the assay, and Kd the affinity of the radioligand for the receptor. Results were expressed as pKi's, means±SD of at least 2 separate experiments; i.e. outliers (outside+/−1 std of mean) and discrepancies were excluded.

Assay [4] addresses T1, Muscarine M4 (GPCR-A-MA-ACH M4). Briefly: Muscarine M4 receptor binding, 3H-4DAMP. To be noted: human M4, CHO cells, ligand 0.2 nM, 60 min/22° C., read-out: RB Musc. M4 3H-DAMP pKi (converted). The procedure:
as §1, §2, §3

For assay [5] the target is unchanged. Briefly: Muscarine M4 receptor binding, 3H-Oxotremorine. To be noted: human M4, CHO cells; receptor binding, ligand 6 nM, 30 min/25° C.; read-out: RB Musc. M4 3H-Oxotremorine pKi (converted). The procedure: as §1, §2, §3

The structures appear in SMILES notation. Some results are limits rather than exact numbers.

`CN1CCC=C(c2n[nH]cc2OCCCc2ccccc2)C1` [Compound 33A, 3-[4-(3-Phenyl-propoxy)-1H-pyrazol-3-yl]-1,2,5,6-tetrahydro-1-methylpyridine]: the EC50 was 794 nM in assay [1] and 126 nM in assay [2]. The Ki is 1260 nM in assay [3], 251 nM in assay [4] and 501 nM in assay [5].
For `CCCCOc1c[nH]nc1C1=CCCN(C)C1` [Compound 33C, 3-(4-Butyloxy-1H-pyrazol-3-yl)-1,2,5,6-tetrahydro-1-methylpyridine], in that order: 1260 nM, 126 nM, 1260 nM, 316 nM and 1580 nM.
On the same counts, the results for `C=CCCOc1c[nH]nc1C1=CCCN(C)C1` [Compound 33D, 3-(4-But-3-enyloxy-1H-pyrazol-3-yl)-1,2,5,6-tetrahydro-1-methylpyridine] are 1260 nM, 100 nM, 2510 nM, 1000 nM and 1580 nM.
For `CCCCCCCOc1c[nH]nc1C1=CCCN(C)C1` [Compound 33E, 3-(4-Heptyloxy-1H-pyrazol-3-yl)-1,2,5,6-tetrahydro-1-methylpyridine], in that order: 631 nM, 200 nM, 1000 nM, 316 nM and 158 nM.
Regarding `CCCCC#Cc1c[nH]nc1C1=CCCN(C)C1` [Compound 45A, 3-(4-Hex-1-ynyl-1H-Pyrazol-3-yl)-1,2,5,6-tetrahydro-1-methylpyridine], the EC50 in assay [1] is 794 nM; in assay [2] it was 126 nM. The Ki in assay [3] is 1580 nM; in assay [4], 631 nM; in assay [5] it was 398 nM.
On the same counts, the results for `CCCCCC#Cc1c[nH]nc1C1=CCCN(C)C1` [Compound 45B, 3-(4-Hept-1-ynyl-1H-pyrazol-3-yl)-1,2,5,6-tetrahydro-1-methylpyridine] are 316 nM, 126 nM, 2000 nM, 1260 nM and 501 nM.
On the same counts, the results for `CCCCCCCC#Cc1c[nH]nc1C1=CCCN(C)C1` [Compound 45C, 3-(4-Non-1-ynyl-1H-pyrazol-3-yl)-1,2,5,6-tetrahydro-1-methylpyridine] are 2000 nM, greater than 1000 nM, 794 nM, 794 nM and 501 nM.
With `CN1CCC=C(c2n[nH]cc2C#CCCCc2ccccc2)C1` [Compound 45D, 3-[4-(5-Phenyl-pent-1-ynyl)-1H-pyrazol-3-yl]-1,2,5,6-tetrahydro-1-methylpyridine], the values for the EC50 in assay [1] and in assay [2] were 1260 nM and 794 nM, respectively. Besides, the Ki was 2000 nM in assay [3], 631 nM in assay [4] and 501 nM in assay [5].
For `CN1CCC=C(c2n[nH]cc2C#CCCCC2CCCCC2)C1` [Compound 45E, 3-[4-(5-Cyclohexyl-pent-1-ynyl)-1H-pyrazol-3-yl]-1,2,5,6-tetrahydro-1-methylpyridine], the EC50 in assay [1] is greater than 10000 nM; in assay [2], greater than 1000 nM. Also, the Ki in assay [3], in assay [4] and in assay [5] was 1580 nM in each case.
For `CCCCC=Cc1c[nH]nc1C1=CCCN(C)C1` [Compound 47A, 3-(4-Hex-1-enyl-1H-pyrazol-3-yl)-1,2,5,6-tetrahydro-1-methylpyridine], the EC50 was 501 nM in assay [1] and 158 nM in assay [2]. Besides, the Ki in assay [3] is 2510 nM; in assay [4], 794 nM; in assay [5], 251 nM.
In the case of `CCCCCCC=Cc1c[nH]nc1C1=CCCN(C)C1` [Compound 47C, 3-(4-Oct-1-enyl-1H-pyrazol-3-yl)-1,2,5,6-tetrahydro-1-methylpyridine], the results for the EC50 in assay [1] and in assay [2] were 631 nM and 794 nM, respectively. In addition, the Ki in assay [3] was 794 nM; in assay [4], 794 nM; in assay [5] it was 251 nM.
